According to paper PMC10786919, “Design-rules for stapled peptides with in vivo activity and their application to Mdm2/X antagonists” (Nature Communications, 2024):
≈ marks a conversion by molar mass, not a printed value. Positions of bridges follow the written chain, without caps; N, C: chain ends. Non-standard residues stand in square brackets, D forms with d. Residues, ends and D or L forms follow the SMILES beside them. Lys(N3) = [N-]=[N+]=NCCCC[C@H](N)C(=O)O; R8 = C=CCCCCCC[C@@](C)(N)C(=O)O; Cba = N[C@@H](CC1CCC1)C(=O)O; S5 = C=CCCC[C@](C)(N)C(=O)O; βAla = NCCC(=O)O

How the values were obtained:
[1] = Lactate dehydrogenase (LDH) release assay; assay type: cell-based; settings: LDH: Cytotoxicity assay: EC50
In short: (§1)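 Membrane damage measured as lactate dehydrogenase release (CytoTox-ONE kit) from p53-responsive β-lactamase reporter HCT116 cells plated at 8000 per well. Final DMSO 0.5%; geometric mean reported from a minimum of three biological replicates.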

HCT116 cells = assay: Lactate dehydrogenase (LDH) release assay; assay type: cell-based
In short: as §1

[2] = Solubility assay (kinetic solubility, PBS pH 7); assay type: physicochemical; settings: pH 7, PBS; for solubility kinetic: pH 7, aqueous buffer, kinetic from dmso stock, read-out: Solubility
In short: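 Quantitation uses an external standard at 100 µM, prepared from 10 mM stock in acetonitrile:methanol:DMSO (10:80:10). Solubility (µM) = (peak area of sample ÷ peak area of standard) × standard concentration.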

[3] = Experimental LogD (partition coefficient); settings: for logD: not stated, Partition Coeff LogD
in vitro = settings: Nanoclick permeability assay EC50
In short: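 Azido-peptide permeability was read as loss of NanoBRET signal (donor 450 nm, acceptor 610 nm) after adding NanoBret618-azide at 10 μM final.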

SMILES | EC50 [1] [µM] | LDH: Cytotoxicity assay: % Effect (HCT116 cells) [%] | solubility kinetic [2] [µM] | EPSA (physchem) [A^2] | logD [3] | Solubility [2] | Partition Coeff LogD [3] | cell entry EC50 (in vitro) [nM]
CC(=O)N[C@@H](C)C(=O)N[C@@H](C)C(=O)N[C@@H](C)C(=O)N[C@@H](C)C(=O)N[C@@H](CC(C)C)C(=O)N[C@H](C(=O)N[C@@H](Cc1ccccc1)C(=O)N[C@]1(C)CCCCCCC=CCCC[C@@](C)(C(=O)N[C@@H](CO)C(=O)N[C@@H](C)C(=O)N[C@@H](C)C(N)=O)NC(=O)[C@H](CC2CCC2)NC(=O)[C@H](CCC(N)=O)NC(=O)[C@H](C)NC(=O)[C@H](Cc2c[nH]c3ccccc23)NC(=O)[C@H](Cc2ccc(O)cc2)NC(=O)[C@H](CCC(=O)O)NC1=O)[C@@H](C)O [MP-360] | > 50.6 | 2.492 | 24.7 (≈ 50.1 µg/mL) | 219 | 3.24 |  |  | 
CC(=O)N[C@@H](CC(C)C)C(=O)N[C@H](C(=O)N[C@@H](Cc1ccccc1)C(=O)N[C@]1(C)CCCCCCC=CCCC[C@@](C)(C(=O)N[C@@H](CO)C(=O)N[C@@H](C)C(=O)N[C@@H](C)C(N)=O)NC(=O)[C@H](CC2CCC2)NC(=O)[C@H](CC(C)C)NC(=O)[C@H](CCC(N)=O)NC(=O)[C@H](C)NC(=O)[C@H](Cc2ccc(O)cc2)NC(=O)[C@H](CCC(=O)O)NC1=O)[C@@H](C)O [MP-364] (Ac-LTF[R8]EYAQL[Cba][S5]SAA-NH2; staple 4-11) | 16 | 68.78 |  | 196 |  | Poorly Behaved | Poorly Behaved | 
CC(=O)N[C@@H](CC(C)C)C(=O)N[C@H](C(=O)N[C@@H](Cc1ccccc1)C(=O)N[C@]1(C)CCCCCCC=CCCC[C@@](C)(C(=O)N[C@@H](CO)C(=O)N[C@@H](C)C(=O)N[C@@H](C)C(N)=O)NC(=O)[C@H](CC2CCC2)NC(=O)[C@H](CCC(N)=O)NC(=O)[C@H](CCC(N)=O)NC(=O)[C@H](Cc2c[nH]c3ccccc23)NC(=O)[C@H](Cc2ccc(O)cc2)NC(=O)[C@H](CCC(=O)O)NC1=O)[C@@H](C)O [MP-864] (Ac-LTF[R8]EYWQQ[Cba][S5]SAA-NH2; staple 4-11) | > 50.6 |  | 86.5 (≈ 156 µg/mL) | 212 | 2.59 |  |  | 
CC(=O)N[C@@H](CC(C)C)C(=O)N[C@H](C(=O)N[C@@H](Cc1ccccc1)C(=O)NC(C)(C)C(=O)N[C@@H](CCC(=O)O)C(=O)N[C@@H](Cc1ccc(O)cc1)C(=O)N[C@@H](Cc1c[nH]c2ccccc12)C(=O)N[C@H](CCC(N)=O)C(=O)N[C@@H](CC(C)C)C(=O)N[C@@H](CC1CCC1)C(=O)NC(C)(C)C(=O)N[C@@H](CO)C(=O)N[C@@H](C)C(=O)N[C@@H](C)C(N)=O)[C@@H](C)O [MP-786] | > 50.6 | 7.785 | 170 (≈ 283 µg/mL) | 187 | 1.99 |  |  | 
CC(=O)N[C@@H](CC(C)C)C(=O)N[C@H](C(=O)N[C@@H](Cc1ccccc1)C(=O)NC(C)(C)C(=O)N[C@@H](CCC(=O)O)C(=O)N[C@@H](Cc1ccc(O)cc1)C(=O)N[C@@H](Cc1c[nH]c2ccccc12)C(=O)N[C@@H](CCC(N)=O)C(=O)N[C@H](CC(C)C)C(=O)N[C@@H](CC1CCC1)C(=O)NC(C)(C)C(=O)N[C@@H](CO)C(=O)N[C@@H](C)C(=O)N[C@@H](C)C(N)=O)[C@@H](C)O [MP-788] | > 50.6 | 8.3 | 83.5 (≈ 139 µg/mL) | 196 | 2.06 |  |  | 
CC(=O)N[C@H](C)C(=O)N[C@H](C)C(=O)N[C@H](C)C(=O)N[C@H](C)C(=O)N[C@@H](CC(C)C)C(=O)N[C@H](C(=O)N[C@@H](Cc1ccccc1)C(=O)N[C@]1(C)CCCCCCC=CCCC[C@@](C)(C(=O)N[C@@H](CO)C(=O)N[C@@H](C)C(=O)N[C@@H](C)C(N)=O)NC(=O)[C@H](CC2CCC2)NC(=O)[C@H](CCC(N)=O)NC(=O)[C@H](C)NC(=O)[C@H](Cc2c[nH]c3ccccc23)NC(=O)[C@H](Cc2ccc(O)cc2)NC(=O)[C@H](CCC(=O)O)NC1=O)[C@@H](C)O [MP-365] | > 50.6 | -0.1776 | 76.3 (≈ 155 µg/mL) | 210 | 2.6 |  |  | 
CC(=O)N[C@@H](CC(C)C)C(=O)N[C@H](C(=O)N[C@@H](Cc1ccccc1)C(=O)NC(C)(C)C(=O)N[C@H](CCC(=O)O)C(=O)N[C@@H](Cc1ccc(O)cc1)C(=O)N[C@@H](Cc1c[nH]c2ccccc12)C(=O)N[C@@H](CCC(N)=O)C(=O)N[C@@H](CC(C)C)C(=O)N[C@@H](CC1CCC1)C(=O)NC(C)(C)C(=O)N[C@@H](CO)C(=O)N[C@@H](C)C(=O)N[C@@H](C)C(N)=O)[C@@H](C)O [MP-789] | > 50.6 | 5.465 | 28 (≈ 46.6 µg/mL) | 196 | 2.12 |  |  | 
CC(=O)N[C@@H](CC(C)C)C(=O)N[C@H](C(=O)N[C@@H](C)C(=O)N[C@]1(C)CCCCCCC=CCCC[C@@](C)(C(=O)N[C@@H](CO)C(=O)N[C@@H](C)C(=O)N[C@H](C)C(N)=O)NC(=O)[C@H](CC2CCC2)NC(=O)[C@H](CC(C)C)NC(=O)[C@H](CCC(N)=O)NC(=O)[C@H](Cc2c[nH]c3ccccc23)NC(=O)[C@H](Cc2ccc(O)cc2)NC(=O)[C@H](CCC(=O)O)NC1=O)[C@@H](C)O [MP-671] (Ac-LTA[R8]EYWQL[Cba][S5]SA[dA]-NH2; staple 4-11) | > 50.6 | 3.06 | 74.3 (≈ 127 µg/mL) | 199 | 2.27 |  |  | 
CC(=O)N[C@H](CC(C)C)C(=O)N[C@H](C(=O)N[C@@H](Cc1ccccc1)C(=O)N[C@]1(C)CCCCCCC=CCCC[C@@](C)(C(=O)N[C@@H](CO)C(=O)N[C@H](C)C(=O)N[C@@H](C)C(N)=O)NC(=O)[C@H](CC2CCC2)NC(=O)[C@H](CC(C)C)NC(=O)[C@H](CCC(N)=O)NC(=O)[C@H](Cc2c[nH]c3ccccc23)NC(=O)[C@H](Cc2ccc(O)cc2)NC(=O)[C@H](CCC(=O)O)NC1=O)[C@@H](C)O [MP-7201] | > 50 | 4.51 | 19 (≈ 34 µg/mL) | 191 | 2.8 |  |  | 
CC(=O)N[C@H](CC(C)C)C(=O)N[C@H](C(=O)N[C@@H](Cc1ccccc1)C(=O)NC(C)(C)C(=O)N[C@@H](CCC(=O)O)C(=O)N[C@@H](Cc1ccc(O)cc1)C(=O)N[C@@H](Cc1c[nH]c2ccccc12)C(=O)N[C@@H](CCC(N)=O)C(=O)N[C@@H](CC(C)C)C(=O)N[C@@H](CC1CCC1)C(=O)NC(C)(C)C(=O)N[C@@H](CO)C(=O)N[C@@H](C)C(=O)N[C@@H](C)C(N)=O)[C@@H](C)O [MP-787] | > 50.6 | 4.125 | 24 (≈ 40 µg/mL) | 190 | 2.16 |  |  | 
CC(=O)N[C@@H](CC(C)C)C(=O)N[C@H](C(=O)N[C@@H](Cc1ccccc1)C(=O)N[C@]1(C)CCCCCCC=CCCC[C@@](C)(C(=O)N[C@@H](CO)C(=O)N[C@@H](C)C(=O)N[C@@H](C)C(N)=O)NC(=O)[C@H](CC2CCC2)NC(=O)[C@H](CC(C)C)NC(=O)[C@H](CCC(N)=O)NC(=O)[C@H](Cc2c[nH]c3ccccc23)NC(=O)[C@H](C)NC(=O)[C@H](CCC(=O)O)NC1=O)[C@@H](C)O [MP-363] (Ac-LTF[R8]EAWQL[Cba][S5]SAA-NH2; staple 4-11) | > 50.6 | 4.97 |  | 195 | 2.85 |  |  | 
CC(=O)N[C@@H](CCCCN=[N+]=[N-])C(=O)NCCC(=O)N[C@@H](CC(C)C)C(=O)N[C@H](C(=O)N[C@@H](Cc1ccccc1)C(=O)N[C@]1(C)CCCCCCC=CCCC[C@@](C)(C(=O)N[C@@H](CO)C(=O)N[C@@H](C)C(=O)N[C@@H](C)C(N)=O)NC(=O)[C@H](CC2CCC2)NC(=O)[C@@H]2CCCCNC(=O)CC[C@H](NC1=O)C(=O)N[C@@H](Cc1ccc(O)cc1)C(=O)N[C@@H](Cc1c[nH]c3ccccc13)C(=O)N[C@@H](C)C(=O)N2)[C@@H](C)O [MP-001] (Ac-[Lys(N3)][βAla]LTF[R8]EYWAK[Cba][S5]SAA-NH2; staple 6-13; lactam 7-11) | > 50.7 |  |  | 173 | 3.84 |  |  | 1150
CC(=O)N[C@@H](CC(C)C)C(=O)N[C@H](C(=O)N[C@@H](Cc1ccccc1)C(=O)N[C@]1(C)CCCCCCC=CCCC[C@@](C)(C(=O)N[C@@H](CO)C(=O)N[C@@H](C)C(=O)N[C@@H](C)C(N)=O)NC(=O)[C@H](CC2CCC2)NC(=O)[C@H](CC(C)C)NC(=O)[C@H](CCC(N)=O)NC(=O)[C@@H](Cc2c[nH]c3ccccc23)NC(=O)[C@H](Cc2ccc(O)cc2)NC(=O)[C@H](CCC(=O)O)NC1=O)[C@@H](C)O [MP-594] | 14.8 | 35.22 | 11 (≈ 19.7 µg/mL) | 203 | 2.83 |  |  | 
CC(=O)N(C)CC(=O)N(C)CC(=O)N(C)CC(=O)N(C)CC(=O)N[C@@H](CC(C)C)C(=O)N[C@H](C(=O)N[C@@H](Cc1ccccc1)C(=O)N[C@]1(C)CCCCCCC=CCCC[C@@](C)(C(=O)N[C@@H](CO)C(=O)N[C@@H](C)C(=O)N[C@@H](C)C(N)=O)NC(=O)[C@H](CC2CCC2)NC(=O)[C@H](CCC(N)=O)NC(=O)[C@H](C)NC(=O)[C@H](Cc2c[nH]c3ccccc23)NC(=O)[C@H](Cc2ccc(O)cc2)NC(=O)[C@H](CCC(=O)O)NC1=O)[C@@H](C)O [MP-361] | > 50.6 | 2.48 | 70.7 (≈ 143 µg/mL) | 212 | 2.52 |  |  | 
